Test results published in patent US11480583B2, “Method for the diagnosis and treatment of essential primary hypertension” (Universiteit Maastricht, priority 2020, dated 2022).
Entries after “also recorded” stand apart in the source; their conditions may differ. One block for each compound: values may come before it.

Tests used:
[1] = system: femoral arteries of aged NOX5 KI and WT mice; test: Wire myograph, relaxing responses of isolated femoral arteries; parameters: species or system mouse; settings: for Relaxation induced by BAY 60-2770, WT versus KI / Endothelium-independent relaxation induced by PAPA/NO, WT versus KI: femoral arteries, 0.01-10 μM; for Reversal of impaired Ach-induced relaxation by antioxidant: femoral arteries of aged KI mice contracted with 10 μM phenylephrine, Ach 10 μM
Protocol: After mice were sacrificed, thoracic aortae, femoral and saphenous arteries were dissected free from perivascular adipose tissue and mounted in a wire myograph (DMT, Aarhus, DK). The organ chamber was filled with Krebs-Ringer bicarbonate-buffered salt solution (KRB) that was continuously aerated with 95% O2/5% CO2 and maintained at 37° C. Passive stretch procedure was performed to mimic the physiologically relevant internal lumen diameter as previously described. Arterial contractile and relaxing responses were recorded at lumen diameters corresponding to a distending pressure of 100 mmHg in thoracic aorta and femoral artery and at 90% of this diameter in the resistance-sized saphenous artery. […] The diameter tension relationships were constructed according to the law of Laplace for a cylindrical tube: P=T/R (with P for transmural pressure, T for wall tension and R for the lumen radius of the tube). Consequently, wall stiffness can be determined equally by recording 1) changes in tension in response to imposed changes in radius (wire myography) or 2) changes in radius in response to changes in transmural pressure (pressure myography). Here we used the former approach because it has a higher throughput than the latter. Stress-strain relationships and even better “incremental elastic (Young's) modulus” (which require additional recording of wall thickness) only come into play to discriminate between structural and material property contributions to changes in arterial stiffness. Part of the isolated thoracic aorta was studied in the absence and part in the continuous presence of 10 μM indomethacin to inhibit production of prostaglandins that can act as endothelium-derived vasoactive factors in this vessel. The vessels were tested for their contractile response to 40 mM K+, concentration-response curves of phenylephrine (0.01 to 100 μM) and endothelin-1 (1-256 nM) followed by acetylcholine (Ach) (0.01 to 100 μM), PAPA/NO (0.01-10 μM) or Bay60-2770 (0.01-10 μM)-induced relaxations. The wall tension of the vessel segment was continuously recorded with LabChart Pro (ADInstruments, Oxford, UK).

[2] = system: saphenous arteries of aged NOX5 KI and WT mice; test: Wire myograph, relaxing responses of isolated saphenous arteries; parameters: species or system mouse; settings: for Endothelium-independent relaxation induced by PAPA/NO, WT versus KI: saphenous arteries, 0.01-10 μM
Protocol: (§1) After mice were sacrificed, thoracic aortae, femoral and saphenous arteries were dissected free from perivascular adipose tissue and mounted in a wire myograph (DMT, Aarhus, DK). The organ chamber was filled with Krebs-Ringer bicarbonate-buffered salt solution (KRB) that was continuously aerated with 95% O2/5% CO2 and maintained at 37° C. Passive stretch procedure was performed to mimic the physiologically relevant internal lumen diameter as previously described. Arterial contractile and relaxing responses were recorded at lumen diameters corresponding to a distending pressure of 100 mmHg in thoracic aorta and femoral artery and at 90% of this diameter in the resistance-sized saphenous artery. […] The diameter tension relationships were constructed according to the law of Laplace for a cylindrical tube: P=T/R (with P for transmural pressure, T for wall tension and R for the lumen radius of the tube). Consequently, wall stiffness can be determined equally by recording 1) changes in tension in response to imposed changes in radius (wire myography) or 2) changes in radius in response to changes in transmural pressure (pressure myography). Here we used the former approach because it has a higher throughput than the latter. Stress-strain relationships and even better “incremental elastic (Young's) modulus” (which require additional recording of wall thickness) only come into play to discriminate between structural and material property contributions to changes in arterial stiffness. Part of the isolated thoracic aorta was studied in the absence and part in the continuous presence of 10 μM indomethacin to inhibit production of prostaglandins that can act as endothelium-derived vasoactive factors in this vessel. […] The wall tension of the vessel segment was continuously recorded with LabChart Pro (ADInstruments, Oxford, UK).

[3] = system: thoracic aortae of aged NOX5 KI and WT mice; test: Wire myograph, responses of isolated thoracic aortae; parameters: species or system mouse; settings: for Endothelium-independent relaxation induced by PAPA/NO, WT versus KI: thoracic aortae with/without indomethacin, 0.01-10 μM
Protocol: as §1

[4] = system: femoral arteries of aged NOX5 KI mice; test: Superoxide formation, DHE staining of femoral artery cryo-sections; parameters: species or system mouse; settings: pre-treatment with 500 μM L-NAME for 30 min at 37° C.
Protocol: Superoxide was measured in femoral arteries using the florescence dye dihydroethidium (DHE) (Thermo Scientific Technology, The Netherlands). Frozen femoral arteries cryo-sections were fixated in 4% paraformaldehyde (PFA) in PBS and then incubated with 2 μM DHE for 30 minutes at 37° C. After three washing steps with PBS, slices were incubated with DAPI (Sigma-Aldrich, The Netherlands) […] for 10 min. Sections were washed in PBS and then mounted using a Dako Fluorescence Mounting Medium ([…], Agilent Technologies). Immunofluorescent signals were viewed using a Leica DM13000 B fluorescence microscope. Some arteries were pre-treated with 500 μM L-NAME for 30 min at 37° C. before performing the DHE staining.

[5] = system: elevated blood pressure induced by NOS uncoupling; settings: cited from earlier work
elevated blood pressure = settings: by improving endothelial function; cited from earlier work

- Relaxation induced by BAY 60-2770, WT versus KI ([1]; listed as Bay60-2770): did not differ
Structure (SMILES): O=C(O)CCCCN(CCc1cc(F)ccc1OCc1ccc(-c2ccc(C(F)(F)F)cc2)cc1)Cc1ccc(C(=O)O)cc1 [BAY 60-2770]
- Relaxation induced by BAY 60-2770, WT versus KI [1]: Neither the PAPA/NO (FIGS. 13 A-C) nor the BAY 60-2770 response (FIG. 11 D) differed between WT and KI mice

Structure (SMILES): CC(=O)N[C@@H](CS)C(=O)O [N-acetylcysteine]
- Reversal of impaired Ach-induced relaxation by antioxidant ([1]; 10 μM N-acetylcysteine): not reversed

- Endothelium-independent relaxation induced by PAPA/NO, WT versus KI ([2]; listed as PAPA NO): did not differ
- Endothelium-independent relaxation induced by PAPA/NO, WT versus KI ([1]; listed as PAPA NO): did not differ
Structure (SMILES): CCCN(CCCN)/[N+]([O-])=N/O [PAPA/NO]
- Endothelium-independent relaxation induced by PAPA/NO, WT versus KI [2]: Neither the PAPA/NO (FIGS. 13 A-C) nor the BAY 60-2770 response (FIG. 11 D) differed between WT and KI mice
- Endothelium-independent relaxation induced by PAPA/NO, WT versus KI [1]: Neither the PAPA/NO (FIGS. 13 A-C) nor the BAY 60-2770 response (FIG. 11 D) differed between WT and KI mice
- Endothelium-independent relaxation induced by PAPA/NO, WT versus KI [3]: Neither the PAPA/NO (FIGS. 13 A-C) nor the BAY 60-2770 response (FIG. 11 D) differed between WT and KI mice
- Endothelium-independent relaxation induced by PAPA/NO, WT versus KI ([3]; listed as PAPA NO): did not differ

Structure (SMILES): COC(=O)[C@@H](N)CCCNC(=N)N[N+](=O)[O-] [L-NAME]
- Superoxide formation (DHE staining), increase in KI versus WT [4]: inhibited
- Effect of L-NAME on Ach-induced relaxation ([2]; saphenous arteries of aged KI and WT mice contracted with endothelin-1, 100 μM L-NAME): did not modify the relaxing effects of Ach
- Effect of L-NAME on Ach-induced relaxation ([1]; femoral arteries of aged KI and WT mice contracted with 256 nM endothelin-1, 100 μM L-NAME): reversed
- Effect of L-NAME on Ach-induced relaxation ([3]; thoracic aortae of aged KI and WT mice contracted with 256 nM endothelin-1, 100 μM L-NAME): reversed

Structure (SMILES): C[C@H](O)C(=O)C1=Nc2c(nc(N)[nH]c2=O)NC1 [sepiapterin]
- Blood pressure lowering, preclinical [5]: lower elevated blood pressure induced by NOS uncoupling
- Ach-induced relaxation after pre-treatment with sepiapterin ([1]; femoral arteries of aged KI mice pre-contracted with phenylephrine, sepiapterin 100 μM, compared with WT): improved relaxation in KI; also recorded: greatly improved and became indistinguishable from those in WT

Structure (SMILES): Nc1nc2ncc(CNc3ccc(C(=O)N[C@@H](CCC(=O)O)C(=O)O)cc3)nc2c(=O)[nH]1 [folic acid]
- Reduction of elevated blood pressure, clinical (elevated blood pressure): clinically effective to reduce elevated blood pressure

Structure (SMILES): CC1(C)CC(O)CC(C)(C)N1[O] [tempol]
- Reversal of impaired Ach-induced relaxation by antioxidant ([1]; 100 μM tempol): not reversed
